For orientation: IC50 means the concentration at which inhibition is half-maximal. Lower therefore signals greater potency.

This note sets out measurements from ChEMBL document CHEMBL1141875, “Antitumor-active cobalt-alkyne complexes derived from acetylsalicylic acid: studies on the mode of drug action” (J Med Chem, 2005).

Data set [1] in a line: Antiproliferative activity in MCF-7 human breast cancer cells. Type of data set: functional, cell-based, MCF7.
A short description of data set [2]: Antiproliferative activity in MDA-MB 231 human breast cancer cells. Type of data set: functional, cell-based, Cancer cell lines.
Data set [3] has as its system Glutathione reductase (Homo sapiens). Put plainly: Percentage influence on cellular glutathione reductase activity.
For data set [4], the system named is Nucleic Acid. Put plainly: DNA-binding efficacy. Type of data set: nucleic-acid assay.
Data set [5] has as its system Cancer cell lines. Put plainly: Content in MDA-MB 231 human breast cancer cell nuclei was reported. Type of data set: functional, cell-based.
Data set [6] deals with Cancer cell lines. As to the kind of experiment: Content in MCF-7 human breast cancer cell nuclei was reported. Type of data set: functional, cell-based.
The test system of data set [7] is Cancer cell lines. As to the kind of experiment: Percentage of content in MCF-7 human breast cancer cell nuclei was reported. Type of data set: functional, cell-based.
The test system of data set [8] is Cancer cell lines. As to the kind of experiment: Percentage of content in MDA-MB 231 human breast cancer cell nuclei was reported. Type of data set: functional, cell-based.
Data set [9] can be described thus: Lipophilicity was reported. As to conditions: human, octanol/water. Type of data set: physicochemical.
Where [10] appears, read: Homo sapiens, Cancer cell lines.

Consider `O=c1[nH]cc(F)c(=O)[nH]1` [FLUOROURACIL], for which the IC50 came out at 4.8 µM in data set [1] (Homo sapiens, MCF7) and 9.6 µM in data set [2] (setting [10]).

CISPLATIN: the IC50 in [1] (mcf7) amounted to 2 µM; in data set [2] (cancer cell lines), 4 µM.

As for Co-ASS [listing 1 of 2 here], the Activity is 93% in data set [3]; 9.82 pmol/µg in data set [4]; 0.22 pmol/µg in data set [5]; 0.12 pmol/µg in data set [6]; 0.8% in data set [7]; 5% in [8].

Consider `N[C@@H](Cc1ccc(N(CCCl)CCCl)cc1)C(=O)O`, for which the IC50 in [1] (Homo sapiens, MCF7) is 5.7 µM; in data set [2] (setting [10]) it was 3.9 µM.

For the compound Co-ASS [listing 2 of 2 here], in [9], the “Log Kw” value is on record as 4.91. Further, the values for the IC50 in data set [1] (mcf7) and in data set [2] (cancer cell lines) were 1.4 µM and 1.9 µM, respectively.
